Laboratory results as given in PMC9967645, “OAT3 Participates in Drug–Drug Interaction between Bentysrepinine and Entecavir through Interactions with M8—A Metabolite of Bentysrepinine—In Rats and Humans In Vitro” (Molecules, 2023).
Several values for one entry are separate records, joined by “and”; a condition that tells them apart may be missing. Equal values may be shown once. Read-outs that look alike come from different tables or passages of the source.

Columns and labels:
hOAT3 = target: T1, hOAT3 (Homo sapiens, UniProt Q8TCC7); experiment: In vitro uptake assay in hOAT3-HEK293 cells
T1 sequence (Q8TCC7 1-542): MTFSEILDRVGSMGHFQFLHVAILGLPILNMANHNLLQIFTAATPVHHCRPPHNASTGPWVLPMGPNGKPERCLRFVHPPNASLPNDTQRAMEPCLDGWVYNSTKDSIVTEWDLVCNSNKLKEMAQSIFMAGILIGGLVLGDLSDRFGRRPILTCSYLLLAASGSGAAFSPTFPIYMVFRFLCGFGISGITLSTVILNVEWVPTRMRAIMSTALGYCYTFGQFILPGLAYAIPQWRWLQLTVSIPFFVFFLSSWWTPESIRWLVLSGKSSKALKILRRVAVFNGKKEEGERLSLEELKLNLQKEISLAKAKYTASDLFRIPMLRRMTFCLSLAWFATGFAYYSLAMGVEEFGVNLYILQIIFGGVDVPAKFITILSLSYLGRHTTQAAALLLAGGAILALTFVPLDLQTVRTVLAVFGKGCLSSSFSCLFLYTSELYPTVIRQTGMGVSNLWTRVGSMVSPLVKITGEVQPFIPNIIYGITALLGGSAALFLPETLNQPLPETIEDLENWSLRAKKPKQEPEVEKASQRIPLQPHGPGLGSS
Procedure: The hOAT1-HEK293, hOAT3-HEK293 and mock cells were cultured in Dulbecco modified Eagle medium (DMEM) containing 10% fetal bovine serum (FBS) and 1% penicillin/streptomycin in an atmosphere of 5% CO2 air at 37 °C. The HEK293 cells were plated on 24-well plates at a density of 5 × 10^5 cells/well. […] Uptake assay was initiated by adding 1 mL of the transporter buffer containing Y101, M8, ETV or probe substrate. Following incubation with gentle shaking, the uptake was terminated at designated time by removing the transporter buffer and washing cells three times with 1 mL of ice-cold HBSS. Next, substrates of Y101, M8, ETV, PAH and ES in cell monolayer were released by lysing the cells with 0.3 mL of 0.1% Triton X-100 for 2 h and determined by liquid chromatography–tandem mass spectrometry (LC–MS/MS). In the time-course uptake assay, Y101 (2.0 µM) and M8 (10 µM) in the presence or absence of PRO (100 µM) were measured in hOAT1-HEK293, hOAT3-HEK293 and mock cells. The concentration-dependent uptake of M8 was determined in hOAT3-HEK293 cells, and incubation time (5 min) was optimized. The uptake of M8 (10 µM) with or without ETV was examined in hOAT3-HEK293 cells. The uptake of ETV (10 µM) with or without Y101 or M8 was also measured in hOAT1-HEK293 and hOAT3-HEK293 cells, respectively. Furthermore, PAH and ES at concentrations of 10 µM were used as positive control in hOAT1-HEK293 and hOAT3-HEK293 cells, respectively. Protein concentrations were measured by the bicinchoninic acid procedure (Solarbio, Beijing, China) using bovine serum albumin as the standard.
(§1) Biological samples were prepared as previously described. Aliquots (50 µL) of urine, plasma, kidney homogenates, or cell lysates were individually mixed with 150 µL methanol and 50 µL working solution of internal standard (acetaminophen or bestatin), followed by vortexing for 1 min and centrifuging at 13,800 g for 10 min. […] The resulting supernatant (1 µL) was subjected to LC-MS/MS for the assessment of Y101, M8, M9 and ETV, respectively. […] The concentrations of ETV, Y101, M8 and M9 were determined by an AB QTRAP 5500 LC–MS/MS System (Foster City, CA, USA) as previously described. Chromatographic separation was achieved on an Infinitylab Poroshell 120 EC-C18 (50 mm × 2.1 mm, 2.7 µm, Agilent Technology Inc., CA, USA) at 40 °C. The mobile phase consisted of formic acid-acetonitrile (0.05:100, v/v) and a mixture of 1 mmol-ammonium acetate-acetonitrile-formic acid (95:5:0.05, v/v/v) at a flow rate of 0.3 mL/min. […] Analyst1.5.2 software was used for data processing and analysis.

[1] = Pharmacokinetic study in rats, intravenous Y101 with or without PRO; format: in vivo, Sprague–Dawley (SD) rats; conditions: for Tmax / half-life / AUC(0-inf) / AUC(0-t) / Cmax: male, Sprague-Dawley, rat, plasma, iv, 25 mg/kg, n = 3
Procedure: The effect of PRO on the pharmacokinetics of Y101 was studied in rats. Male rats surgically prepared with indwelling jugular cannula were randomly divided into two groups (n = 3): (1) Y101 alone (25 mg/kg) as a control and (2) Y101 + PRO (25 mg/kg for Y101 and 100 mg/kg for PRO) as an experimental group. The intravenous dose of Y101 was prepared as previously described. Both Y101 and PRO were injected by caudal vein to rats at volume of 5 mL/kg.
(§2) Following administration, serial blood samples were collected through jugular vein pre-dose (0 h) and post-dose at 0.033, 0.083, 0.25, 0.5, 1, 1.5, 2, 3, 4, 6, 9, 12, 24 and 30 h in heparinized Eppendorf tubes. The resulting samples were centrifuged at 13,800× g at 4 °C for 5 min to obtain plasma. All plasma samples were stored at −70 °C until analysis.
(§3) Biological samples were prepared as previously described.
(§4) Non-compartmental analysis with Phenix WinNonlin (version 8.1; Pharsight, Certara Corp, Princeton, NJ) was used to calculate the main pharmacokinetic parameters of ETV, Y101, M8 and M9 for individual rats. The observed values were reported for maximum concentration (Cmax) and time to reach maximum concentration (Tmax), while the area under the plasma concentration–time curve (AUC) was calculated via the default trapezoidal-up, log-trapezoidal-down approach.

[2] = Pharmacokinetic DDI study in rats, intravenous Y101 and/or ETV; format: in vivo, Sprague–Dawley (SD) rats; conditions: Sprague-Dawley, rat, plasma, n = 4
Procedure: (§5) Additionally, DDI between Y101 and ETV was investigated by monitoring time-course plasma Y101 in rats with surgery as described above. Animals were randomly placed into three groups (n = 4): (1) Y101 alone (25 mg/kg for intravenous treatment and 60 mg/kg for oral administration); (2) ETV (0.06 mg/kg); and (3) Y101 (25 mg/kg for intravenous treatment and 60 mg/kg for oral administration) + ETV (0.06 mg/kg). ETV was dissolved in saline at concentration of 12 µg/mL. Rats received an oral or intravenous dose of Y101 and/or ETV at volume of 5 mL/kg. The doses used in in vivo pharmacokinetic studies were selected in accordance with therapeutic doses of Y101 and ETV commonly used clinically and in previous studies.
as §2, §3, §4

[3] = Pharmacokinetic DDI study in rats, oral Y101 and/or ETV; format: in vivo, Sprague–Dawley (SD) rats; conditions: Sprague-Dawley, rat, plasma, n = 4
Procedure: as §5, §2, §3, §4

[4] = Renal excretion study in rats (cumulative urinary excretion, renal clearance); format: in vivo, Sprague–Dawley (SD) rats; conditions: for CL renal: Sprague-Dawley, rat, urine, iv, read-out: CLR (renal clearance) (converted)
Procedure: To investigate the effects of PRO on the renal excretion of Y101 and its metabolites, rats received an intravenous dose of Y101 (25 mg/kg) or Y101 + PRO (25 mg/kg for Y101 and 100 mg/kg for PRO) via the caudal vein. In order to verify the DDI between Y101 and ETV in renal excretion, rats received an intravenous dose of Y101 (25 mg/kg) and/or ETV (0.06 mg/kg) by caudal vein.
[…] Subsequently, urine samples were stored at −70 °C until analysis. The cumulative urinary excretion and renal clearance (CLR) were calculated as previously described.
as §3

rat kidney slices = experiment: In vitro uptake assay in kidney slices; format: in vitro ADME; conditions: M8 5.0 µM; for inhibition of the uptake of M8 in kidney slices: PCG 0.2 and 0.5 mM, PRO 0.1 mM, PAH 0.2 and 0.5 mM, TEA 0.2 mM, 10 min, ETV 10 µM
Procedure: The renal cortex was cut into 300 µm slices with a ZQP-86 tissue slicer (Shanghai Zhisun Equipment Co., Ltd., Shanghai, China; surface area 0.15 cm^2). […] Next, the kidney slices were prepared as previously described. Two slices per well were placed into 37 °C buffer filled with oxygen for pre-incubation for 3 min and then gently moved into a 24-well cell culture plate containing 1 mL oxygenated buffer at 4 °C or 37 °C. The uptakes of ETV (10 µM), Y101 (2.0 µM), M8 (5.0 µM) and M9 (1.0 µM) were measured at 5, 10, 15 and 30 min after the treatment, respectively. […] Following incubation at the designated time, kidney slices were collected, rinsed with ice-cold buffer three times, and dried on filter paper. After weighing and homogenization (IKA-T 10 homogenizer; IKA, Staufen, Germany), the concentrations of Y101, M8, M9 and ETV of kidney slice homogenates were determined as in the description below.
as §1

[5] = i.v. Y101 25 mg/kg + PRO 100 mg/kg vs Y101 alone
[6] = i.v. Y101 25 mg/kg + PRO 100 mg/kg
[7] = i.v. Y101 25 mg/kg + ETV 0.06 mg/kg
[8] = oral Y101 60 mg/kg + ETV 0.06 mg/kg

C[C@]12CC[C@@H]3c4ccc(OS(=O)(=O)[O-])cc4CC[C@H]3[C@@H]1CCC2=O.[Na+] [ES, Estrone 3-sulfate sodium salt, reference compound]
substrate of hOAT3 (uptake in hOAT3-HEK293 vs mock-HEK293 cells) (hOAT3; Y101 2.0 µM, M8 10 µM, ES 10 µM): selectively accumulated

C[N+](C)([O-])CCOc1ccc(CC(NC(=O)c2ccccc2)C(=O)O)cc1 (stereo not drawn) [M9]
elevation in AUC value on co-administration of PRO [1, 5]: 56%
increase in Cmax value on co-administration of PRO [1, 5]: 1.4 fold
Tmax [1, 6]: 1.33 h
half-life [1, 6]: 79.2 min
AUC(0-inf) [1, 6]: 536 ng·h/mL
AUC(0-t) [1, 6]: 527 ng·h/mL
Cmax [1, 6]: 219 ng/mL
AUC(0-inf) ([1]; i.v. Y101 25 mg/kg alone): 343 ng·h/mL
AUC(0-t) ([1]; i.v. Y101 25 mg/kg alone): 335 ng·h/mL
Cmax ([1]; i.v. Y101 25 mg/kg alone): 156 ng/mL
Tmax ([1]; i.v. Y101 25 mg/kg alone): 1.17 h
half-life ([1]; i.v. Y101 25 mg/kg alone): 60.6 min
AUC(0-inf) [2, 7]: 471 ng·h/mL
AUC(0-t) [2, 7]: 464 ng·h/mL
Cmax [2, 7]: 171 ng/mL
AUC(0-inf) ([2]; i.v. Y101 25 mg/kg alone): 553 ng·h/mL
AUC(0-t) ([2]; i.v. Y101 25 mg/kg alone): 547 ng·h/mL
Cmax ([2]; i.v. Y101 25 mg/kg alone): 134 ng/mL
Tmax [2, 7]: 1.25 h
half-life [2, 7]: 108 min
Tmax ([2]; i.v. Y101 25 mg/kg alone): 1.13 h
half-life ([2]; i.v. Y101 25 mg/kg alone): 68.4 min
AUC(0-inf) [3, 8]: 657 ng·h/mL
AUC(0-t) [3, 8]: 645 ng·h/mL
Cmax [3, 8]: 127 ng/mL
AUC(0-inf) ([3]; oral Y101 60 mg/kg alone): 645 ng·h/mL
AUC(0-t) ([3]; oral Y101 60 mg/kg alone): 641 ng·h/mL
Cmax ([3]; oral Y101 60 mg/kg alone): 144 ng/mL
Tmax [3, 8]: 2.5 h
half-life [3, 8]: 87.6 min
Tmax ([3]; oral Y101 60 mg/kg alone): 3 h
half-life ([3]; oral Y101 60 mg/kg alone): 69.6 min
CL renal ([4]; 25 mg/kg, i.v. Y101 25 mg/kg + PRO 100 mg/kg): 2 mL/min/kg
CL renal ([4]; 25 mg/kg, i.v. Y101 25 mg/kg alone (Table 1, control of PRO study)): 2.08 mL/min/kg
CL renal ([4]; 25 mg/kg, i.v. Y101 25 mg/kg alone (Table 2, control of ETV study)): 2.47 mL/min/kg
CL renal [4, 7]: 2.67 mL/min/kg
cumulative excretion in the urine ([4]; i.v. Y101 25 mg/kg + ETV 0.06 mg/kg, at 30 h post-dose): 1.50 ± 0.232 % of the dose
cumulative urinary excretion ([4]; i.v. Y101 25 mg/kg + PRO 100 mg/kg, 0 to 48 h): 1.36 ± 0.106%
cumulative urinary excretion ([4]; i.v. Y101 25 mg/kg alone, at 48 h post-dose): 1.42 ± 0.04 % of the dose and 1.42 % of the dose
time and temperature dependence of uptake in kidney slices (rat kidney slices; 37 °C vs 4 °C, Y101 2.0 µM, M9 1.0 µM, 5 to 30 min): did not show significant time or temperature dependence

CC1(C)S[C@@H]2[C@H](NC(=O)Cc3ccccc3)C(=O)N2[C@H]1C(=O)O [PCG, benzylpenicillin]
inhibition of the uptake of M8 in kidney slices (rat kidney slices): inhibited significantly

CCCN(CCC)S(=O)(=O)c1ccc(C(=O)O)cc1 [PRO, probenecid, reference compound]
inhibition of the uptake of M8 in kidney slices (rat kidney slices): inhibited significantly
inhibition of the uptake of ES in hOAT3-HEK293 cells (hOAT3; ES 10 µM, PRO 100 µM, 10 min): inhibited in the presence of PRO
inhibition of the uptake of M8 in hOAT3-HEK293 cells (hOAT3; M8 10 µM, PRO 100 µM, ETV 10 µM): inhibited by the presence of PRO
